Columns and labels:
Experiment in all cases: KINOMEscan kinase binding assay
[1] = target: T1, 384 kinases from the human genome (Homo sapiens, UniProt P07333)
T1 construct: purchased Eurofin/DiscoverX
Summary of the method: (§1)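 A panel of 384 human kinases was profiled by KINOMEscan binding in the presence of 10 µM compound. Kinase–ligand binding was given as percent of DMSO control, averaged from duplicates in a single run, with an S(10) selectivity score.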

[2] = target: T2, 384 kinases from the human genome (Homo sapiens, UniProt P53671); settings: kinase LIMK2 (Entrez LIMK2)
T2 construct: purchased Eurofin/DiscoverX
Summary of the method: as §1

[3] = target: T3, 384 kinases from the human genome (Homo sapiens, UniProt Q12852); settings: kinase DLK (Entrez MAP3K12)
T3 construct: purchased Eurofin/DiscoverX
Summary of the method: as §1

[4] = target: T4, 384 kinases from the human genome (Homo sapiens, UniProt Q99640); settings: kinase PKMYT1 (Entrez PKMYT1)
T4 construct: purchased Eurofin/DiscoverX
Summary of the method: as §1

[5] = target: T5, 384 kinases from the human genome (Homo sapiens, UniProt P24941); settings: kinase CDK2 (Entrez CDK2)
T5 construct: purchased Eurofin/DiscoverX
Summary of the method: as §1

[6] = target: T6, 384 kinases from the human genome (Homo sapiens, UniProt P08069); settings: kinase IGF1R (Entrez IGF1R)
T6 construct: purchased Eurofin/DiscoverX
Summary of the method: as §1

[7] = target: T7, 384 kinases from the human genome (Homo sapiens, UniProt Q15139); settings: kinase PRKD1 (Entrez PRKD1)
T7 construct: purchased Eurofin/DiscoverX
Summary of the method: as §1

[8] = target: T8, 384 kinases from the human genome (Homo sapiens, UniProt Q07002); settings: kinase PCTK3 (Entrez CDK18)
T8 construct: purchased Eurofin/DiscoverX
Summary of the method: as §1

[9] = target: T9, 384 kinases from the human genome (Homo sapiens, UniProt Q7KZI7); settings: kinase MARK2 (Entrez MARK2)
T9 construct: purchased Eurofin/DiscoverX
Summary of the method: as §1

[10] = target: T10, 384 kinases from the human genome (Homo sapiens, UniProt P53355); settings: kinase DAPK1 (Entrez DAPK1)
T10 construct: purchased Eurofin/DiscoverX
Summary of the method: as §1

[11] = target: T11, 384 kinases from the human genome (Homo sapiens, UniProt Q13470); settings: kinase TNK1 (Entrez TNK1)
T11 construct: purchased Eurofin/DiscoverX
Summary of the method: as §1

[12] = target: T12, 384 kinases from the human genome (Homo sapiens, UniProt O14965); settings: kinase AURKA (Entrez AURKA)
T12 construct: purchased Eurofin/DiscoverX
Summary of the method: as §1

[13] = target: T13, 384 kinases from the human genome (Homo sapiens, UniProt Q14004); settings: kinase CDC2L5 (Entrez CDK13)
T13 construct: purchased Eurofin/DiscoverX
Summary of the method: as §1

[14] = target: T14, 384 kinases from the human genome (Homo sapiens, UniProt O15111); settings: kinase IKK-alpha (Entrez CHUK)
T14 construct: purchased Eurofin/DiscoverX
Summary of the method: as §1

[15] = target: T15, 384 kinases from the human genome (Homo sapiens, UniProt Q9H2K8); settings: kinase TAOK3 (Entrez TAOK3)
T15 construct: purchased Eurofin/DiscoverX
Summary of the method: as §1

[16] = target: T16, 384 kinases from the human genome (Homo sapiens, UniProt Q96SB4); settings: kinase SRPK1 (Entrez SRPK1)
T16 construct: purchased Eurofin/DiscoverX
Summary of the method: as §1

[17] = target: T17, 384 kinases from the human genome (Homo sapiens, UniProt Q16620); settings: kinase TRKB (Entrez NTRK2)
T17 construct: purchased Eurofin/DiscoverX
Summary of the method: as §1

[18] = target: T18, 384 kinases from the human genome (Homo sapiens, UniProt Q16539); settings: kinase p38-alpha (Entrez MAPK14)
T18 construct: purchased Eurofin/DiscoverX
Summary of the method: as §1

[19] = target: T19, 384 kinases from the human genome (Homo sapiens, UniProt O96017); settings: kinase CHEK2 (Entrez CHEK2)
T19 construct: purchased Eurofin/DiscoverX
Summary of the method: as §1

[20] = target: T20, 384 kinases from the human genome (Homo sapiens, UniProt Q96RR4); settings: kinase CAMKK2 (Entrez CAMKK2)
T20 construct: purchased Eurofin/DiscoverX
Summary of the method: as §1

T1 sequence (P07333 20-972): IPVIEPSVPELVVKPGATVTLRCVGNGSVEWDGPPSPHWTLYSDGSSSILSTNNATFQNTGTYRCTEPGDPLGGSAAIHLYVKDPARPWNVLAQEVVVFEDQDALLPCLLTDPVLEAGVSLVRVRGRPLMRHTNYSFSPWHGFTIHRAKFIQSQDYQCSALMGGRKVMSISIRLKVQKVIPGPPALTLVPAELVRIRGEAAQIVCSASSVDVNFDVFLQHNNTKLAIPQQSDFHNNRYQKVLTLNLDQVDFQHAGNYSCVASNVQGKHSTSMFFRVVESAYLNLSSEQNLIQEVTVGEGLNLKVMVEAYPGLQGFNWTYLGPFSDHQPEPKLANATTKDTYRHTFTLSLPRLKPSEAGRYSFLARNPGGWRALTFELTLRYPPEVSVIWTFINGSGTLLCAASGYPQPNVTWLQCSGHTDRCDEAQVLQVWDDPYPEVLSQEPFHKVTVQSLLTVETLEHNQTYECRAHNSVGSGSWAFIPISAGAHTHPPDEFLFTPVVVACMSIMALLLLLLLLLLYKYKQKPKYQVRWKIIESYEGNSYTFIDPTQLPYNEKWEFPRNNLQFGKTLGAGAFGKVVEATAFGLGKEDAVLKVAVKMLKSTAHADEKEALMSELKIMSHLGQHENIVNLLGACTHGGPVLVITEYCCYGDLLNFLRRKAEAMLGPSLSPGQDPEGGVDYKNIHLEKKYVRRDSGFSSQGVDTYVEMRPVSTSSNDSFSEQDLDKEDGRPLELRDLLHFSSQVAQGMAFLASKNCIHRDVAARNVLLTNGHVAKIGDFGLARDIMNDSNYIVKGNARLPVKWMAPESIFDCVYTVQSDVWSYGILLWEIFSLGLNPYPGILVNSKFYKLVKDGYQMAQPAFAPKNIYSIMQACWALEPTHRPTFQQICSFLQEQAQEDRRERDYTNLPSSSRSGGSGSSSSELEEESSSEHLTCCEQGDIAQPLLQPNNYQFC
T11 sequence (Q13470 whole entry): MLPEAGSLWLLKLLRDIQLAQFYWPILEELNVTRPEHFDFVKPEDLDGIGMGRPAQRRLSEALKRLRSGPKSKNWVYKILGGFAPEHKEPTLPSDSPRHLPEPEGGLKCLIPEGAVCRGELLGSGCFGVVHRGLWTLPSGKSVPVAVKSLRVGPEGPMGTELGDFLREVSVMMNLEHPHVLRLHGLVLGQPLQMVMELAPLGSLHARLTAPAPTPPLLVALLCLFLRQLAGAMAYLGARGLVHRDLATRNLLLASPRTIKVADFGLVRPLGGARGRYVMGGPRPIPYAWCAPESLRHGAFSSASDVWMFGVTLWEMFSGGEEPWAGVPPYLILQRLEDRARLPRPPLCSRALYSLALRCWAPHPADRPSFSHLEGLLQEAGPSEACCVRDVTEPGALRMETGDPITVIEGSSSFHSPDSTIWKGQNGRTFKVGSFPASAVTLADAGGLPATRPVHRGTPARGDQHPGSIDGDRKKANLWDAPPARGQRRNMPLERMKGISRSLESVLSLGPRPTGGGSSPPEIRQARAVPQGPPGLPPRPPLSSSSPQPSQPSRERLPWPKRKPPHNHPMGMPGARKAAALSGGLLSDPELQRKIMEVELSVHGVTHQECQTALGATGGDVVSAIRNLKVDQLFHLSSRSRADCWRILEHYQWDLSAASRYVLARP
T18 sequence (Q16539 whole entry): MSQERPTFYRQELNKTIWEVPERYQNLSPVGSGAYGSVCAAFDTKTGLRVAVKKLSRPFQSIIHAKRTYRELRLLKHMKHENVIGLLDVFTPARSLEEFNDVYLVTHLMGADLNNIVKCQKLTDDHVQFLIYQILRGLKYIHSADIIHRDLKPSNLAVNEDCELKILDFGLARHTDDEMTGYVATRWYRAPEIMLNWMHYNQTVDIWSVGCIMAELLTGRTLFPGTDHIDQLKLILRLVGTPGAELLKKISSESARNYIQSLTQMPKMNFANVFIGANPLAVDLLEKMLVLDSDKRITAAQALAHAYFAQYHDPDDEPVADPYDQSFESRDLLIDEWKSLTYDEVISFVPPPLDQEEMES
T14 sequence (O15111 whole entry): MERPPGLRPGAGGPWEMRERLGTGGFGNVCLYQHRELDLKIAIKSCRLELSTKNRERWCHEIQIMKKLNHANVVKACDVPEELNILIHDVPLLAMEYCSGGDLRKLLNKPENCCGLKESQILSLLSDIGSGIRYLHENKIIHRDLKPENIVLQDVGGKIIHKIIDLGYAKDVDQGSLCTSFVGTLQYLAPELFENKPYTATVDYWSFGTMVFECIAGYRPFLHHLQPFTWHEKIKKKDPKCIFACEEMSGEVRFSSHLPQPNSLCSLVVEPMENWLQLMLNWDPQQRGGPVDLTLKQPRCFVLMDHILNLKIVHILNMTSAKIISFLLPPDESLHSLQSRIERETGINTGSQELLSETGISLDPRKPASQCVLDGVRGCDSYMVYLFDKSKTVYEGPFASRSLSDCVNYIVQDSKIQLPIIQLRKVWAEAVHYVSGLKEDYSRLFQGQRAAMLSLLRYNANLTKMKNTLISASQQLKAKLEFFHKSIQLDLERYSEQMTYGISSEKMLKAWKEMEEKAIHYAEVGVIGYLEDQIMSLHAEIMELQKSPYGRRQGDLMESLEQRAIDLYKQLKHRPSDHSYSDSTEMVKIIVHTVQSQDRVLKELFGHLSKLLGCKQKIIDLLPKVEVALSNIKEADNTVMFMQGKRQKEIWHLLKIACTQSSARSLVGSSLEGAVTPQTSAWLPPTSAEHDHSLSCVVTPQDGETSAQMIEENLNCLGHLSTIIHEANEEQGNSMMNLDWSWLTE
T19 sequence (O96017 whole entry): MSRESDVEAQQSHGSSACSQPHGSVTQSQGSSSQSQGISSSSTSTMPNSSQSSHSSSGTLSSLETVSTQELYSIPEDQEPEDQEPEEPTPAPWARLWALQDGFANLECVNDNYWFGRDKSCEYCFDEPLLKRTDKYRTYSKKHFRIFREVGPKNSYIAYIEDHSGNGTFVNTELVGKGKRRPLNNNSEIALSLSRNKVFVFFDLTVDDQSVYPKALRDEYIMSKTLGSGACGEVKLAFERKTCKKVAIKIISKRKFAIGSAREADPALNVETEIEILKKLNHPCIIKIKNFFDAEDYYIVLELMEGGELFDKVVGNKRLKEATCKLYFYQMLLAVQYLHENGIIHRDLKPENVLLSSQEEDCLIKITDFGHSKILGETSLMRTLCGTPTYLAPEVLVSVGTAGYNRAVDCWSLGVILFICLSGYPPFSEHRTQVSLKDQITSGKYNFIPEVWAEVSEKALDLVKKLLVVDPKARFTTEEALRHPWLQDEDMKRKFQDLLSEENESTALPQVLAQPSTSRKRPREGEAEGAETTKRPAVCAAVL
T8 sequence (Q07002 whole entry): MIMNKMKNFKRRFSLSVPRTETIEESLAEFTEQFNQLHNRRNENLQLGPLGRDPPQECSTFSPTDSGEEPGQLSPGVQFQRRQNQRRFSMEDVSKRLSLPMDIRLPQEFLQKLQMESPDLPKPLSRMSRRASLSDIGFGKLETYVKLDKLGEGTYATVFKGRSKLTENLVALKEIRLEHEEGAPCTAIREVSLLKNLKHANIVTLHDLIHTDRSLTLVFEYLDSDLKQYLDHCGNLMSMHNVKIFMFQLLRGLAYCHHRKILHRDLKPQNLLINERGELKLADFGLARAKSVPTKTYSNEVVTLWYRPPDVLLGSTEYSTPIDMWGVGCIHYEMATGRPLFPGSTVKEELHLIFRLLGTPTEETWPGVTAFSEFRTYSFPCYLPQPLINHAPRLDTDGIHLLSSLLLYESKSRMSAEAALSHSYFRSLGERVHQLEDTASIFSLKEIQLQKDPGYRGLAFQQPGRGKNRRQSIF
T20 sequence (Q96RR4 whole entry): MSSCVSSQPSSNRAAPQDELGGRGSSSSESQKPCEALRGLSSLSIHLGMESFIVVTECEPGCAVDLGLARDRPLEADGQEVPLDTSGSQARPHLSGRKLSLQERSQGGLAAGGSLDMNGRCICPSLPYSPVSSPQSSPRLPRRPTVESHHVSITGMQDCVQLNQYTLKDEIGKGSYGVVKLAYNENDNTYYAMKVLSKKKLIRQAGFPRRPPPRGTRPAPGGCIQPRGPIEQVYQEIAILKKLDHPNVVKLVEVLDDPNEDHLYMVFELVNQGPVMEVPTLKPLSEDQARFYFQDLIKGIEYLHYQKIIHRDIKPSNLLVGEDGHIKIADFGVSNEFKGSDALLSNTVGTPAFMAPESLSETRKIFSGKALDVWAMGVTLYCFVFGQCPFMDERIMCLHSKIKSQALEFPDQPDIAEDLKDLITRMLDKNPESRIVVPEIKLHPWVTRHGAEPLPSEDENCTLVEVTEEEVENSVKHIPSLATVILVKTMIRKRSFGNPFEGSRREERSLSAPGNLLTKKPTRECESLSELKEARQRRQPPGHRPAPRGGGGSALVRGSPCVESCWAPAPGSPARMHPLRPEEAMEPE
T16 sequence (Q96SB4 whole entry): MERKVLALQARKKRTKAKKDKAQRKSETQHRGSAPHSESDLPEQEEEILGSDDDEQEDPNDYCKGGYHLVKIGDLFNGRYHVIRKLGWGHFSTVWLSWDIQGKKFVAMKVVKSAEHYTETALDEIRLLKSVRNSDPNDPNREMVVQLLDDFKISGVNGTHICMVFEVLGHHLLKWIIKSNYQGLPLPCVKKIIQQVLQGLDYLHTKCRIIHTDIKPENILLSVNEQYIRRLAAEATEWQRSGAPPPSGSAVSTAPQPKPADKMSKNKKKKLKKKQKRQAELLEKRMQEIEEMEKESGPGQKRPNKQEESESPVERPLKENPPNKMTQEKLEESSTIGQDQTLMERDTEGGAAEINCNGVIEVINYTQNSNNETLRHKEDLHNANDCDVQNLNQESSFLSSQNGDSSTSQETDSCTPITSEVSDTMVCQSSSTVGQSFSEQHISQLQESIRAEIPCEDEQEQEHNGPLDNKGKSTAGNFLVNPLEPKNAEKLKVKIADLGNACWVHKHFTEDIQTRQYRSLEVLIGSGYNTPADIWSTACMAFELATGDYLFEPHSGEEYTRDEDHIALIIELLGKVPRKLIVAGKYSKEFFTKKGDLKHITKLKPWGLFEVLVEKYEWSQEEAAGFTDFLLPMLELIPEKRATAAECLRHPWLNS

CC(C)C(=O)N1CCN(c2ccc(NC(=O)c3cc4ccccc4o3)cc2Cl)CC1 [Compound 21]
Percent Control ([1]; kinase CSF1R (Entrez CSF1R)): 73%
Percent Control ([1]; kinase CSF1R-autoinhibited (Entrez CSF1R)): 100%
Percent Control [2]: 90%
Percent Control [3]: 100%
Percent Control [4]: 83%
Percent Control [5]: 100%
Percent Control [6]: 76%
Percent Control [7]: 97%
Percent Control [8]: 96%
Percent Control [9]: 80%
Percent Control [10]: 90%
Percent Control [11]: 75%
Percent Control [12]: 89%
Percent Control [13]: 100%
Percent Control [14]: 100%
Percent Control [15]: 100%
Percent Control [16]: 96%
Percent Control [17]: 55%
Percent Control [18]: 100%
Percent Control [19]: 100%
Percent Control [20]: 100%
